From ChEMBL document CHEMBL2029300, “Discovery of a Potent Retinoid X Receptor Antagonist Structurally Closely Related to RXR Agonist NEt-3IB” (ACS Med Chem Lett, 2011) come the findings set out here.

Activity calls are given as the source filed them. The calls are words filed in the database; no cut-off is given here.

The term Kb denotes the equilibrium dissociation constant of an antagonist, usually derived from a functional assay.

For assay [1], the target named is T1, Retinoic acid receptor RXR-alpha (Homo sapiens) (UniProt P19793).
T1 sequence (whole entry): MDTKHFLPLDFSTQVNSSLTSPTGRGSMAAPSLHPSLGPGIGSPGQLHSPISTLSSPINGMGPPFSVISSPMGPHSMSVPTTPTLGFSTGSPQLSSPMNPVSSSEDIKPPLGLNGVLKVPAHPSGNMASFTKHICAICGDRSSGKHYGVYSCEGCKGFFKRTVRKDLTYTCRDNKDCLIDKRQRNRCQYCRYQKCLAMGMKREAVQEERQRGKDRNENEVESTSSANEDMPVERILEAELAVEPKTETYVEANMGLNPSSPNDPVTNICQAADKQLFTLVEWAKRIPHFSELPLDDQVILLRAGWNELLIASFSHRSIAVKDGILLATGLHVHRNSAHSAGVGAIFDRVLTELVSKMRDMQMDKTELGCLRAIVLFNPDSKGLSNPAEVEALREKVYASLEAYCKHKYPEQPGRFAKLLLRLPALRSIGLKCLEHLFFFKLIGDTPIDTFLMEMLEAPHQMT
The assay is described as follows: (§1) Antagonist activity at RXRalpha expressed in COS1 cells assessed as inhibition of NEt-TMN-induced luciferase activity after 18 hrs by reporter gene assay relative to LGD1069. It is filed as functional, cell-based. As to conditions: COS-1. In general terms: A reporter such as luciferase makes a cellular process visible.

The target in assay [2] is T2, Retinoic acid receptor RXR-alpha (Homo sapiens, UniProt P19793).
T2 sequence (P19793 whole entry): T1 sequence (whole entry)
The description is as §1. It is filed as functional, cell-based, COS-1.

The target of assay [3] is T2, Retinoic acid receptor RXR-alpha. The assay is described as follows: Antagonist activity at RXRalpha expressed in COS1 cells assessed as inhibition of NEt-3IP-induced luciferase activity after 18 hrs by reporter gene assay relative to LGD1069. In kind it is functional, cell-based, COS-1.

Turning to `CCN(c1ccc(C(=O)O)cn1)c1cc(OCC(C)C)c(C(C)C)cc1-c1ccccc1`, the outcome in assay [1] was inactive.
With `CCCCCCOc1cc2c(cc1N(C)c1ncc(C(=O)O)cn1)C(C)(C)CCC2(C)C`, the Kb in assay [2] came out at 77.6 nM. In addition, in assay [1], the result was Active.
In the case of `CCN(c1ccc(C(=O)O)cn1)c1cc(OCC(C)C)c(C(C)C)cc1Nc1ccccc1`, the result in assay [1] was Active.
With `CCN(c1ccc(C(=O)O)cn1)c1cc(OCC(C)C)c(C(C)C)cc1/C=C/c1ccccc1`, the figures for the Kb in assay [2] and in assay [3] were 5.89 nM and 5.5 nM, respectively. For the same compound, the result in assay [1] was Active.
